In ChEMBL document CHEMBL1148484, “Design, synthesis, and biological evaluation of doxorubicin-formaldehyde conjugates targeted to breast cancer cells” (J Med Chem, 2004):

How the values were obtained:
MDA-MB-435 = assay: cells; conditions: Homo sapiens
Description: Inhibition of MDA-MB-435 breast cancer cell proliferation

MDA-MB-231 = assay: cells; conditions: Homo sapiens
Description: Inhibition of estrogen receptor negative MDA-MB-231 breast cancer cell proliferation

NCI/ADR-RES = assay: cells; conditions: Homo sapiens
Description: Inhibition of MCF-7/Adr breast cancer cell proliferation

MCF7 = assay: cells; conditions: Homo sapiens
Description: Inhibition of estrogen receptor positive MCF-7 breast cancer cell proliferation

Estrogen receptor = Estrogen receptor (Homo sapiens, UniProt Q92731+P03372); conditions: mcf-7
Description: Inhibition of [3H]E2 binding to estrogen receptor alpha in MCF-7 cell lysate

| SMILES | IC50 (MDA-MB-435) [nM] | IC50 (MDA-MB-231) [nM] | IC50 (NCI/ADR-RES) [nM] | IC50 (MCF7) [nM] | IC50 (Estrogen receptor) [nM] |
| --- | --- | --- | --- | --- | --- |
| COc1cccc2c1C(=O)c1c(O)c3c(c(O)c1C2=O)C[C@@](O)(C(=O)CO)C[C@@H]3O[C@H]1C[C@H](N)[C@H](O)[C@H](C)O1 [DOXORUBICIN] | 150 | 300 | 10000 |  |  |
| CC/C(=C(\c1ccccc1)c1ccc(OCCN(C)C)cc1)c1ccccc1 [TAMOXIFEN] | 50 | 80 | 2000 | 70 |  |
| CCC(c1ccccc1)C(c1ccc(O)cc1)c1ccc(OCCN(C)CCOCCOCCO/N=C/c2ccc(O)c(C(N)=O)c2)cc1 (centres undefined) |  |  |  |  | 150 |
| CCC(c1ccccc1)C(c1ccc(O)cc1)c1ccc(OCCN(C)CCO/N=C/c2ccc(O)c(C(N)=O)c2)cc1 (centres undefined) |  |  |  |  | 300 |
| CC/C(=C(/c1ccc(O)cc1)c1ccc(OCCN(C)CCO/N=C/c2ccc(O)c(C(=O)NCNC3CC(O[C@H]4C[C@](O)(C(=O)CO)Cc5c(O)c6c(c(O)c54)C(=O)c4c(OC)cccc4C6=O)OC(C)C3O)c2)cc1)c1ccccc1 (some centres undefined) | 60 | 40 | 250 | 80 | 300 |
| CCC(c1ccccc1)C(c1ccc(O)cc1)c1ccc(OCCN(C)CCOCCO/N=C/c2ccc(O)c(C(N)=O)c2)cc1 (centres undefined) |  |  |  |  | 150 |
| CC/C(=C(/c1ccc(O)cc1)c1ccc(OCN(C)C)cc1)c1ccccc1 | 20000 | 30000 | 40000 | 300 | 5 |
| CC/C(=C(/c1ccc(O)cc1)c1ccc(OCCN(C)CCOCCO/N=C/c2ccc(O)c(C(=O)NCNC3CC(O[C@H]4C[C@](O)(C(=O)CO)Cc5c(O)c6c(c(O)c54)C(=O)c4c(OC)cccc4C6=O)OC(C)C3O)c2)cc1)c1ccccc1 (some centres undefined) | 40 | 30 | 70 | 20 | 300 |
| CC/C(=C(/c1ccc(O)cc1)c1ccc(OCCN(C)CCOCCOCCO/N=C/c2ccc(O)c(C(=O)NCNC3CC(O[C@H]4C[C@](O)(C(=O)CO)Cc5c(O)c6c(c(O)c54)C(=O)c4c(OC)cccc4C6=O)OC(C)C3O)c2)cc1)c1ccccc1 (some centres undefined) | 40 | 30 | 60 | 30 | 200 |
| CC/C(=C(/c1ccc(O)cc1)c1ccc(OCN(C)C)cc1)c1ccccc1.COc1cccc2c1C(=O)c1c(O)c3c(c(O)c1C2=O)C[C@@](O)(C(=O)CO)C[C@@H]3O[C@H]1C[C@H](N)[C@H](O)[C@H](C)O1 | 100 | 100 | 2000 | 70 |  |
